According to patent publication US20220287976A1, “AMMONIA AS A PROCESSING AID FOR SPRAYED SOLID DISPERSIONS” (Capsugel Belgium NV, priority 2019, published 2022):
≈ marks a conversion by molar mass, not a printed value.

Columns and labels:
[1] = Crystalline solubility in methanol (saturated solution, thermogravimetric analysis of supernatant); type: physicochemical; settings: organic solvent or mixture, thermodynamic from solid, no ammonia
Description: A saturated solution of sulfasalazine (Spectrum Chemical) was prepared in methanol with excess crystalline sulfasalazine.
A saturated solution of piroxicam (Spectrum Chemical) was prepared in methanol with excess crystalline piroxicam.

[2] = Concentration enhancement in methanol with ammonia; type: physicochemical; settings: for concentration in methanol in the presence of ammonia: methanol with about 1.07 molar equivalents of ammonia, completely dissolved; for time to dissolution after addition of ammonia: slurry in methanol, 2.14 M ammonia in methanol added with stirring; for solubility enhancement in methanol in the presence of ammonia: versus crystalline solubility in methanol without ammonia
Description: A second mixture of sulfasalazine in methanol was prepared by stirring 656.0 mg of sulfasalazine (1.65 mmol) in 14.00 mL of methanol. To this slurry, 0.825 mL of 2.14 M ammonia (1.76 mmol) in methanol was added with stirring resulting in complete dissolution of sulfasalazine within 1 minute.
A second mixture of piroxicam in methanol was prepared by stirring 661.8 mg of piroxicam (2.00 mmol) in 15.00 mL of methanol.

Row | Compound | solubility [1] | concentration in methanol in the presence of ammonia [2] | time to dissolution after addition of ammonia [2] | solubility enhancement in methanol in the presence of ammonia [2]
1 | CN1C(C(=O)Nc2ccccn2)=C(O)c2ccccc2S1(=O)=O [piroxicam] | ~2100 µg/mL (≈ 6.34 mM) | greater than 41 mg/mL | ≤ 1 min | greater than 19 fold
2 | O=C(O)c1cc(/N=N/c2ccc(S(=O)(=O)Nc3ccccn3)cc2)ccc1O [sulfasalazine] | ~1000 µg/mL (≈ 2.51 mM) | greater than 43 mg/mL | ≤ 1 min | about 43 fold
